Experimental data from article doi:10.1101/2025.10.01.679885v1, “Kinetic and thermodynamic analysis of PKA-R–cAMP interactions in crude media using focal molography” (biorxiv, 2025).
Where two headings read alike, the source gives them in different places.

Experiments:
[1] = molecular target: T1, PKA-R (bovine RIα 92-260; bRIα 92–260) (Bos taurus, UniProt P00514); test: biochemical; set-up: Focal molography, immobilised cAMP analogue, PKA-R as analyte; KD at 293 K from van't Hoff fit; settings: 293 K, van't Hoff fit
T1 construct: gene PRKAR1A; expressed in E. coli BL21 (DE3) RIL
T1 sequence (P00514 93-261): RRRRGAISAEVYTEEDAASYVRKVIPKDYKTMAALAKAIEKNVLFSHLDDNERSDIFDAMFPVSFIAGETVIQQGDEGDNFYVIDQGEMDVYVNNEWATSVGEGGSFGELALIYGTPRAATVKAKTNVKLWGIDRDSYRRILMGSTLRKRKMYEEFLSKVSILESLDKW
Description: In this study, we use focal molography to investigate the interaction between the cAMP binding domain A of the bovine R subunit Iα of PKA (bRIα 92–260) (PKA-R) and cyclic AMP (cAMP) analogues in both buffer and 50% human serum. The R-subunit inhibits protein kinase activity of the catalytic subunit of PKA by direct binding. By quantifying kinetic and thermodynamic parameters across a physiological temperature range, we examine how the biological environment alters the enthalpic and entropic contributions to binding. […] In order to determine the kinetic parameters of the PKA-R–cAMP interaction, multi cycle kinetic experiments were conducted in both buffer and 50% human serum at 20^◦C with intermediate regeneration. […] The sensor maintained reliable performance in both conditions, with no evidence of non-specific binding in serum. During these experiments, optimal experimental settings were refined iteratively to achieve the ideal flow rates and best transition times between association and dissociation phase. […] To mitigate this, buffer A was supplemented with bovine serum albumin (BSA) at a concentration of 1 mg/mL, which successfully eliminated sample depletion. […] Fig 8 summarizes the resulting thermodynamic parameters calculated at 293 K (see S1 Table for data). For both ligands, binding to PKA-R remains highly favorable in both media, with ΔG values around −10 kcal/mol yielding similar affinities. However, the underlying driving forces appear to differ between buffer and serum. […] In contrast, the interaction in 50% serum becomes more enthalpy driven for both ligands. For 6-AH-cAMP, ΔH drops to −7.4 kcal/mol, while the entropic contribution increases to −2.6 kcal/mol. For 8-AHA-cAMP, the transition is even more striking: binding becomes entirely enthalpy driven in serum, with an unfavorable entropy change (−T ΔS = 1.2 kcal/mol) and a strong enthalpic contribution (ΔH = −11.3 kcal/mol). All thermodynamic parameters were extracted from the linear fits to the van’t Hoff plots via standard error propagation from the covariance matrix returned by the linear regression. Specifically, standard deviations for ΔH, ΔS, and ΔG were calculated using the variances and covariances of the fitted slope and intercept. The reported KD values represent the predicted equilibrium dissociation constants at 293 K based on the linear fits, with associated uncertainties derived from the propagated variance in ln(KD).

[2] = molecular target: T1, PKA-R (bovine RIα 92-260; bRIα 92–260); test: biochemical; set-up: focal molography, PKA-R binding to immobilized cAMP analogue, multi-cycle kinetics, 20 °C, buffer A or 50% human serum; settings: 20 °C, mean of three replicates; for koff: read-out: koff [10^-2 s^-1]; for kon: read-out: kon [10^5 M^-1 s^-1]
Method: In order to determine the kinetic parameters of the PKA-R–cAMP interaction, multi cycle kinetic experiments were conducted in both buffer and 50% human serum at 20^◦C with intermediate regeneration. […] The sensor maintained reliable performance in both conditions, with no evidence of non-specific binding in serum. During these experiments, optimal experimental settings were refined iteratively to achieve the ideal flow rates and best transition times between association and dissociation phase. […] To mitigate this, buffer A was supplemented with bovine serum albumin (BSA) at a concentration of 1 mg/mL, which successfully eliminated sample depletion. […] Nevertheless, subtle differences in the association rate constant (kon) and dissociation rate constant (koff) are evident between the two media. These variations likely stem from the complex biological environment in serum, where interactions with additional serum components may slightly alter the binding dynamics. To ensure that the extracted kinetic parameters accurately represent the specific PKA-R–cAMP interaction, only the initial 15% of the dissociation phase was used to determine koff, thereby minimizing the influence of incomplete dissociation due to the residual sticking of the protein to the surface. Table 2 summarizes the triplicate kinetic measurements for both 6-AH-cAMP and 8-AHA-cAMP in buffer and serum. The equilibrium dissociation constants (KD) remain in the nanomolar range under all conditions. In this study, we use focal molography to investigate the interaction between the cAMP binding domain A of the bovine R subunit Iα of PKA (bRIα 92–260) (PKA-R) and cyclic AMP (cAMP) analogues in both buffer and 50% human serum. The R-subunit inhibits protein kinase activity of the catalytic subunit of PKA by direct binding. By quantifying kinetic and thermodynamic parameters across a physiological temperature range, we examine how the biological environment alters the enthalpic and entropic contributions to binding.

[3] = 50% human serum, read-out: KD [nM] Focal Mol. (Serum)
[4] = buffer, read-out: KD [nM] Focal Mol. (Buffer)

Compound | Kd [1, 3] [nM] | Kd [1, 4] [nM] | Kd ([2]; 50% human serum) [nM] | koff ([2]; 50% human serum) [s⁻¹] | kon ([2]; 50% human serum) [M⁻¹ s⁻¹] | koff ([2]; buffer A) [s⁻¹] | kon ([2]; buffer A) [M⁻¹ s⁻¹]
NCCCCCCNc1nc2c(N)ncnc2n1[C@@H]1O[C@@H]2COP(=O)(O)O[C@H]2[C@H]1O [8-AHA-cAMP, 8-(6-Aminohexylamino)adenosine-3^′,5^′-cyclic monophosphate] | 31 ± 3.4 | 25.5 ± 2.5 | 33.9 | 0.0165 | 487000 | 0.0129 | 389000
NCCCCCCNc1ncnc2c1ncn2[C@@H]1O[C@@H]2COP(=O)(O)O[C@H]2[C@H]1O [6-AH-cAMP, N^6-(6-Aminohexyl)adenosine-3^′,5^′-cyclic monophosphate] | 36.6 ± 0.4 | 29.5 ± 0.9 | 25.4 | 0.0122 | 506000 | 0.013 | 448000
